Experiment: Lipid chemical stability in PBS or histidine buffer solution (LC-MS)
Format: physicochemical
Conditions: for primary degradation pathway: LC-MS; for stability in BT5933 glass vials relative to COP vials: diluted with PBS buffer
Experimental: Stock MC3 lipidic solutions were prepared by dissolving MC3 in an ethanolic solution to a final concentration of 4 mg/mL (e.g., 6 mM). Similarly, stock lipidic DOTAP solutions were prepared by dissolving DOTAP in an ethanolic solution to a final concentration of 4 mg/mL. Stock solutions of phosphate buffered saline (1×, pH 7.4) were used. Final lipidic solutions were prepared by mixing PBS stock to the lipidic stock in a ratio of 3:1 (e.g., PBS stock:DOTAP stock in ethanol=3:1; PBS stock:MC3 stock in ethanol=3:1). Solutions were stored in either glass (BT5933) or polymer (COP) vials.
Dilute lipidic solutions were frozen at −70° C. before being thawed and stored at either 5° C., 25° C., or 40° C. for either 1 week, 2 weeks, or 4 weeks. At each timepoint, (e.g., after 1 week, 2 weeks, or 4 weeks) the lipid solution was analyzed via LC-MS to determine the extent of hydrolysis and/or oxidation present.
MC3 and DOTAP lipids were prepared using either PBS or Histidine buffers. Ethanolic stock solutions of MC3 and DOTAP were prepared as described in Example 1. PBS-based solutions were prepared by diluting the stock lipid solutions, respectively, by 3:1 (PBS:lipid in ethanol (vol/vol)) using 1× PBS, pH 7.4. Histidine-based solutions were also prepared by diluting the stock lipidic solution by 3:1 (histidine:lipid in ethanol vol/vol) using a histidine buffer (10 mM, pH 6.0). Solutions were filled into BT5933, COP, or Valor glass vials at 1 mL aliquots and put on stability. Initial control samples were immediately frozen at −70° C.
Filled vials were stored at either 5° C., 25° C., or 40° C. for either 1 week, 2 weeks, or 4 weeks. At each timepoint, (e.g., after 1 week, 2 weeks, or 4 weeks) the lipid solution was analyzed via LC-MS to determine the extent of hydrolysis and/or oxidation present.

[1] = diluted in 1X PBS pH 7.4, 5, 25, 40° C., 1, 2, 4 weeks
[2] = histidine buffer (10 mM, pH 6.0) vs PBS, 5, 25, 40° C., 1-4 weeks

degree of oxidation [2]	oxidation rate (storage in Valor glass vials vs other vials)	Structure (SMILES)	% lipid intact [1]	primary degradation pathway (diluted in 1X PBS pH 7.4)	stability in BT5933 glass vials relative to COP vials	% hydrolysis [2]	% lipid intact [2]
reduced the degree of oxidation	lower oxidation rate	CCCCC/C=C\C/C=C\CCCCCCCCC(CCCCCCCC/C=C\C/C=C\CCCCC)OC(=O)CCCN(C)C [MC3, 4-(dimethylamino)-butanoic acid, (10Z,13Z)-1-(9Z,12Z)-9,12-octadecadien-1-yl-10,13-nonadecadien-1-yl ester]	lower than the % DOTAP for the same time points	oxidation	improved stability relative to COP vials	significantly reduced lipid hydrolysis of MC3	increasing the % MC3 intact at all storage conditions tested
		CCCCCCCC/C=C\CCCCCCCC(=O)OCC(C[N+](C)(C)C)OC(=O)CCCCCCC/C=C\CCCCCCCC (stereo not drawn) [DOTAP, 1,2-dioleoyl-3-trimethylammonium-propane]	decreased with increasing storage time	hydrolysis	better stability	decreased the % hydrolysis of DOTAP relative to storage in PBS	stabilized the % DOTAP intact at all storage conditions tested
